Source: article PMC9012132 (Journal of medicinal chemistry, 2021)
Entries after “also recorded” stand apart in the source; their conditions may differ.

How the values were obtained:
[1] = molecular target: T1, 5FW-PCAF (Homo sapiens, UniProt Q92831); test: Protein-observed fluorine; type: binding; conditions: qualitative
T1 sequence (Q92831 723-827): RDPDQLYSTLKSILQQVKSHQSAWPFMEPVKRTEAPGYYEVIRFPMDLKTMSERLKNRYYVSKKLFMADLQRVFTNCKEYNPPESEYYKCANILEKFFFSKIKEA

[2] = molecular target: 5FW-CECR2 (Homo sapiens, UniProt Q9BXF3); test: Protein-observed fluorine; type: binding; conditions: qualitative
Chain of 5FW-CECR2 (Q9BXF3 434-538): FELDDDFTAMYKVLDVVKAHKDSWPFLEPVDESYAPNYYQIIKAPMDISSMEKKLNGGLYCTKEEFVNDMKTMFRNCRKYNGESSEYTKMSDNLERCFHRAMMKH

[3] = tested on: 4T1 breast cancer cells; test: Combination treatment with doxorubicin in 4T1 cells; conditions: combination with 50 nM doxorubicin, 4 days
[4] = molecular target: 5FW-BRD4(1) (Homo sapiens, UniProt O60885); test: Protein-observed fluorine; type: binding; conditions: qualitative
[5] = molecular target: BPTF bromodomain (Homo sapiens, UniProt Q12830); type: binding; conditions: AlphaScreen
[6] = tested on: Stratifin (Sfn); test: RT-qPCR of BPTF regulated genes in Eph4 cells, Sfn; conditions: 5 μM, 24 h, relative to DMSO
[7] = tested on: BPTF knockdown (KD) 4T1 cells; test: Inhibitors with doxorubicin in shRNA-mediated BPTF knockdown 4T1 cells; type: cell-based, mouse; conditions: inhibitor and doxorubicin, control for off-target effects
[8] = tested on: 4T1 breast cancer cells; test: Inhibitor toxicity study in 4T1 cells; type: cell-based, mouse
[9] = molecular target: BRD4(1) (Homo sapiens, UniProt O60885); test: AlphaScreen competitive inhibition assay, BRD4; type: binding
[10] = molecular target: T2, BRD9 (Homo sapiens, UniProt Q9H8M2); conditions: previously reported; cited from earlier work
T2 sequence (Q9H8M2 136-240 limits assumed): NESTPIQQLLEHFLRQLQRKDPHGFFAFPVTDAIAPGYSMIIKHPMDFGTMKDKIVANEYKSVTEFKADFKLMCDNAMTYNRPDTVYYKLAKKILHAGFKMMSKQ

[11] = molecular target: T3, PCAF (Homo sapiens, UniProt Q92831); conditions: previously reported; cited from earlier work
T3 sequence (Q92831 723-827 limits assumed): T1 sequence (Q92831 723-827)

[12] = tested on: CECR2; conditions: cited from earlier work

Cn1ncc(Nc2ccc(CCN)cc2)c(Cl)c1=O [Compound 18, 5-((4-(2-aminoethyl)phenyl)amino)-4-chloro-2-methylpyridazin-3(2H)-one]
PrOF NMR chemical exchange regime with PCAF [1]: slow exchange regime
PrOF NMR chemical exchange regime with CECR2 [2]: intermediate chemical exchange
sensitization of 4T1 cells to doxorubicin ([3]; listed as BZ1): sensitized
PrOF NMR chemical exchange regime with BRD4(1) [4]: fast-intermediate exchange

CN(C)CCc1ccc(Nc2c(Cl)cnn(C)c2=O)cc1 [Compound 20, 5-chloro-4-((4-(2-(dimethylamino)ethyl)phenyl)amino)-2-methylpyridazin-3(2H)-one]
fold weaker affinity than 18 [5]: 140 fold
effect on Sfn mRNA level [6]: not significantly affected

COC(=O)c1cccc(NC(=O)NC2CCN(c3ccnc(Nc4ccc(F)cc4)n3)C2)c1 (stereo not shown) [AU1, reference compound]
sensitization of 4T1 cells to doxorubicin [3]: synergize
further toxicity in BPTF knockdown cells [7]: Additional toxicity
effect on Sfn mRNA level [6]: upregulated Sfn but did not reach a high enough level of statistical significance
concentration above which sharp toxicity profile starts [8]: above 16 μM

CC(C)n1ncc(Nc2ccc(CN)cc2)c(Cl)c1=O [Compound 25, 5-((4-(aminomethyl)phenyl)amino)-4-chloro-2-isopropylpyridazin-3(2H)-one]
IC50 [9]: > 250 µM

CN(C)CCc1ccc(Nc2cnn(C)c(=O)c2Cl)cc1 [Compound 19, 4-chloro-5-((4-(2-(dimethylamino)ethyl)phenyl)amino)-2-methylpyridazin-3(2H)-one]
sensitization of 4T1 cells to doxorubicin [3]: sensitized; also recorded: synergize
effect on Sfn mRNA level [6]: statistically significant increase

Cn1ncc(Nc2ccccc2)c(Cl)c1=O [Compound 6, 4-chloro-2-methyl-5-(phenylamino)pyridazin-3(2H)-one]
affinity for BRD9 [10]: 2.5 µM
affinity for PCAF [11]: 10 µM

CN(C)CCCOc1ccc(-c2cc(NCCCn3cccn3)nc(S(C)(=O)=O)n2)cc1 [TP-238]
fold higher affinity for CECR2 over BPTF [12]: 12 fold
